20 compounds from patent publication US8809352B2, “Sulfonamides as inhibitors of Bcl-2 family proteins for the treatments of cancer” (Novartis AG, priority 2009, dated 2014) can be followed below.

Sequence of BCL2 (P10415 whole entry): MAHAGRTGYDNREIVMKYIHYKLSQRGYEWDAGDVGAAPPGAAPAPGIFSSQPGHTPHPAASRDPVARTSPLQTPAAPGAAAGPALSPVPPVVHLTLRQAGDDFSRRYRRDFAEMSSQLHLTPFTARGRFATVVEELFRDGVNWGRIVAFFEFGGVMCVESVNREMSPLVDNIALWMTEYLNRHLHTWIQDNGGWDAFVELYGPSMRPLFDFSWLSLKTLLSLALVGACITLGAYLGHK

The assay addresses BCL2 (Homo sapiens, UniProt P10415). Briefly: Biacore SPR solution inhibition assay of BCL-2 binding to peptide derivatized sensor surfaces. The settings on record: SPR competition; 56 nM BCL2 pre-equilibrated with compound one hour; biotinylated BAK, BAD and NOXA peptide surfaces; 25° C. A digest of the protocol: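 Solution-competition SPR at 25 °C in HEPES pH 7.4 buffer with 1.25 mM DTT and 3% DMSO: compounds (6-point threefold series, 16 μM to 0.004 nM) pre-equilibrated 1 h with 56 nM BCL2, then injected over captured biotinylated BAK, BAD and NOXA peptide surfaces. Binding levels relative to BCL2-only controls gave % inhibition.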
As to `CN(C)CC[C@H](CSc1ccccc1)Nc1ccc(S(=O)(=O)Nc2nc(C(F)(F)F)nc3c2CCN(C2CCN(CC4=C(c5ccc(Cl)cc5)CCC(C)(C)C4)CC2)C3)cc1S(=O)(=O)C(F)(F)F` [Example 70], the IC50 is 0.051 µM.
The value for `CN(C)CC[C@H](CSc1ccccc1F)Nc1ccc(S(=O)(=O)Nc2ncnc3c2CCN(C2CCN(Cc4ccccc4-c4ccc(Cl)cc4)CC2)C3)cc1S(=O)(=O)C(F)(F)F` [Example 47, N-{7-[1-(4′-Chloro-biphenyl-2-ylmethyl)-piperidin-4-yl]-5,6,7,8-tetrahydro-pyrido[3,4-d]pyrimidin-4-yl}-4-[(R)-3-dimethylamino-1-(2-fluoro-phenylsulfanylmethyl)-propylamino]-3-trifluoromethanesulfonyl-benzene sulfonamide] was 0.025 µM.
For `CC#CCOc1ccccc1CN1CCC(N2CCc3c(ncnc3NS(=O)(=O)c3ccc(N[C@H](CCN(C)C)CSc4ccccc4)c(S(=O)(=O)C(F)(F)F)c3)C2)CC1` [Example 46, (R)-N-(7-(1-(2-(but-2-ynyloxy)benzyl)piperidin-4-yl)-5,6,7,8-tetrahydropyrido[3,4-d]pyrimidin-4-yl)-4-(4-(dimethylamino)-1-(phenylthio)butan-2-ylamino)-3-(trifluoromethylsulfonyl)benzenesulfonamide], the IC50 stood at 1.77 µM.
As for `CN(C)CC[C@H](CSc1ccccc1)Nc1ccc(S(=O)(=O)Nc2nc(C(F)(F)F)nc3c2CCN(C2CCN(Cc4ccccc4-c4ccc(Cl)cc4)CC2)C3)cc1[N+](=O)[O-]` [Example 71, (R)-N-(7-(1-((4′-chlorobiphenyl-2-yl)methyl)piperidin-4-yl)-2-(trifluoromethyl)-5,6,7,8-tetrahydropyrido[3,4-d]pyrimidin-4-yl)-4-(4-(dimethylamino)-1-(phenylthio)butan-2-ylamino)-3-nitrobenzenesulfonamide], the figure is 0.02 µM.
As for `CN(C)CC[C@H](CSc1ccccc1)Nc1ccc(S(=O)(=O)Nc2ncnc3c2CCN(C2CCN(Cc4ccccc4-c4ccc(Cl)cc4)CC2)C3)cc1[N+](=O)[O-]` [Example 1, N-{7-[1-(4′-Chloro-biphenyl-2-ylmethyl)-piperidin-4-yl]-5,6,7,8-tetrahydro-pyrido[3,4-d]pyrimidin-4-yl}-4-((R)-3-dimethylamino-1-phenylsulfanylmethyl-propylamino)-3-nitro-benzenesulfonamide], the figure is 0.1 µM; as for `COC1(Cc2ccccc2Br)CCC(N2CCc3c(ncnc3NS(=O)(=O)c3ccc(N[C@H](CCN(C)C)CSc4ccccc4)c(S(=O)(=O)C(F)(F)F)c3)C2)CC1` (stereo partly drawn) [Example 61, (R)-N-(7-(4-(2-bromobenzyl)-4-methoxycyclohexyl)-5,6,7,8-tetrahydropyrido[3,4-d]pyrimidin-4-yl)-4-(4-(dimethylamino)-1-(phenylthio)butan-2-ylamino)-3-(trifluoromethylsulfonyl)benzenesulfonamide], 0.306 µM; as for `CN(C)CC[C@H](CSc1ccc(F)cc1)Nc1ccc(S(=O)(=O)Nc2ncnc3c2CCN(C2CCN(Cc4ccccc4-c4ccc(Cl)cc4)CC2)C3)cc1S(=O)(=O)C(F)(F)F` [Example 37, N-{7-[1-(4′-Chloro-biphenyl-2-ylmethyl)-piperidin-4-yl]-5,6,7,8-tetrahydro-pyrido[3,4-d]pyrimidin-4-yl}-4-[(R)-3-dimethylamino-1-(4-fluoro-phenylsulfanylmethyl)-propylamino]-3-trifluoromethanesulfonyl-benzenesulfonamide], 0.058 µM.
For `[2H]C1(N2CCc3c(ncnc3NS(=O)(=O)c3ccc(N[C@H](CCN4CCOCC4)CSc4ccccc4)c(S(=O)(=O)C(F)(F)F)c3)C2)CCN([C@@H](C)c2ccccc2-c2ccc(Cl)cc2)CC1` [Example 88], the IC50 is 2.31 µM.
For `COC1(Cc2ccccc2-c2ccc(Cl)cc2)CCC(N2CCc3c(ncnc3NS(=O)(=O)c3ccc(N[C@H](CCN(C)C)CSc4ccccc4)c(S(=O)(=O)C(F)(F)F)c3)C2)CC1` (mixture of isomers) [Example 60, (R)-N-(7-(4-((4′-chlorobiphenyl-2-yl)methyl)-4-methoxycyclohexyl)-5,6,7,8-tetrahydropyrido[3,4-d]pyrimidin-4-yl)-4-(4-(dimethylamino)-1-(phenylthio)butan-2-ylamino)-3-(trifluoromethylsulfonyl)benzenesulfonamide], the half-inhibitory concentration (IC50) stood at 0.063 µM.
Consider `CN(C)CC[C@H](CSc1ccccc1)Nc1ccc(S(=O)(=O)Nc2ncnc3c2CCN(C2CCN(Cc4ccccc4-c4ccc(Cl)cc4)CC2)C3)cc1S(=O)(=O)C(F)(F)F` [Example 11, (R)-N-(7-(1((4′-chlorobiphenyl-2-yl)methyl)piperidin-4-yl)-5,6,7,8-tetrahydropyrido[3,4-d]pyrimidin-4-yl)-4-(4-(dimethylamino)-1-(phenylthio)butan-2-ylamino)-3-(trifluoromethylsulfonyl)benzenesulfonamide], for which the IC50 turned out to be 0.02 µM.
`[2H]C1(N2CCc3c(ncnc3NS(=O)(=O)c3ccc(N[C@H](CCN4CCOCC4)CSc4ccccc4)c(S(=O)(=O)C(F)(F)F)c3)C2)CCN([C@H](C)c2ccccc2-c2ccc(Cl)cc2)CC1` [Example 86, N-(7-{1-[(R)-1-(4′-Chloro-biphenyl-2-yl)-ethyl]-4-deuteropiperidin-4-yl}-5,6,7,8-tetrahydro-pyrido[3,4-d]pyrimidin-4-yl)-4-((R)-3-morpholin-4-yl-1-phenylsulfanylmethyl-propylamino)-3-trifluoromethanesulfonyl-benzenesulfonamide]: the IC50 was 0.046 µM.
Take `CN(C)CC[C@H](CSc1ccccc1)Nc1c(F)cc(S(=O)(=O)Nc2ncnc3c2CCN(C2CCN(Cc4ccccc4-c4ccc(Cl)cc4)CC2)C3)cc1F` [Example 12, (R)-N-(7-(1-((4′-chlorobiphenyl-2-yl)methyl)piperidin-4-yl)-5,6,7,8-tetrahydropyrido[3,4-d]pyrimidin-4-yl)-4-(4-(dimethylamino)-1-(phenylthio)butan-2-ylamino)-3,5-difluorobenzenesulfonamide]: the half-maximal inhibitory concentration (IC50) is 3.06 µM.
The value for `CN(C)CC[C@H](CSc1ccccc1Cl)Nc1ccc(S(=O)(=O)Nc2nc(C(F)(F)F)nc3c2CCN(C2CCN(Cc4ccccc4-c4ccc(Cl)cc4)CC2)C3)cc1S(=O)(=O)C(F)(F)F` [Example 33, (R)-N-(7-(1-((4′-chlorobiphenyl-2-yl)methyl)piperidin-4-yl)-2-(trifluoromethyl)-5,6,7,8-tetrahydropyrido[3,4-d]pyrimidin-4-yl)-4-(1-(2-chlorophenylthio)-4-(dimethylamino)butan-2-ylamino)-3-(trifluoromethylsulfonyl)benzenesulfonamide] was 0.073 µM; that for `CC1CC(N2CCc3c(ncnc3NS(=O)(=O)c3ccc(N[C@H](CCN4CCOCC4)CSc4ccccc4)c(S(=O)(=O)C(F)(F)F)c3)C2)CCN1CC1=C(c2ccc(Cl)cc2)CC(C)(C)CC1` (stereo partly drawn) [Example 27, N-(7-(1-((2-(4-chlorophenyl)-4,4-dimethylcyclohex-1-enyl)methyl)-2-methylpiperidin-4-yl)-5,6,7,8-tetrahydropyrido[3,4-d]pyrimidin-4-yl)-4-((R)-4-morpholino-1-(phenylthio)butan-2-ylamino)-3-(trifluoromethylsulfonyl)benzenesulfonamide] was 0.206 µM.
As for `CC1(C)CCC(c2ccc(Cl)cc2)=C(CN2CCC(N3CCc4c(ncnc4NS(=O)(=O)c4ccc(N[C@H](CCN5CCOCC5)CSc5ccccc5)c(S(=O)(=O)C(F)(F)F)c4)C3)CC2)C1` [Example 8], the figure is 0.076 µM.
The value for `O=S(=O)(Nc1ncnc2c1CCN(C1CCN(Cc3ccccc3-c3ccc(Cl)cc3)CC1)C2)c1ccc(NCCSc2ccccc2)c(S(=O)(=O)C(F)(F)F)c1` [Example 52] was 1.31 µM.
For the compound `CN(C)CC[C@H](CSc1ccccc1)Nc1ccc(S(=O)(=O)Nc2nc(Cl)nc3c2CCN(C2CCN(Cc4ccccc4-c4ccc(Cl)cc4)CC2)C3)cc1S(=O)(=O)C(F)(F)F` [Example 50, (R)-N-(2-chloro-7-(1-((4′-chlorobiphenyl-2-yl)methyl)piperidin-4-yl)-5,6,7,8-tetrahydropyrido[3,4-d]pyrimidin-4-yl)-4-(4-(dimethylamino)-1-(phenylthio)butan-2-ylamino)-3-(trifluoromethylsulfonyl)benzenesulfonamide], the half-maximal inhibitory concentration (IC50) worked out at 0.031 µM.
For `CN(C)CC[C@H](CSc1ccccc1)Nc1ccc(S(=O)(=O)Nc2ncnc3c2CCN(C2CCC(=Cc4ccccc4-c4ccc(Cl)cc4)CC2)C3)cc1S(=O)(=O)C(F)(F)F` (stereo partly drawn) [Example 62, N-(7-(4-((4′-chlorobiphenyl-2-yl)methylene)cyclohexyl)-5,6,7,8-tetrahydropyrido[3,4-d]pyrimidin-4-yl)-4-((R)-4-(dimethylamino)-1-(phenylthio)butan-2-ylamino)-3-(trifluoromethylsulfonyl)benzenesulfonamide], the IC50 was found to be 0.174 µM.
As for `CC1Cc2c(ncnc2NS(=O)(=O)c2ccc(N[C@H](CCN(C)C)CSc3ccccc3)c(S(=O)(=O)C(F)(F)F)c2)CN1C1CCN(Cc2ccccc2-c2ccc(Cl)cc2)CC1` (stereo in doubt) [Example 48, N—[(S)-7-[1-(4′-Chloro-biphenyl-2-ylmethyl)-piperidin-4-yl]-6-methyl-5,6,7,8-tetrahydro-pyrido[3,4-d]pyrimidin-4-yl]-4-((R)-3-dimethylamino-1-phenylsulfanylmethyl-propylamino)-3 trifluoromethanesulfonyl-benzene sulfonamide], the figure is 0.353 µM.
As to `CN(C)CC[C@H](CSc1ccccc1)Nc1ccc(S(=O)(=O)Nc2ncnc3c2CCN(C2CCN(Cc4c(F)cccc4-c4ccc(Cl)cc4)CC2)C3)cc1S(=O)(=O)C(F)(F)F` [Example 21, (R)-N—-(7-(1-((4′-chloro-3-fluorobiphenyl-2-yl)methyl)piperidin-4-yl)-5,6,7,8-tetrahydropyrido[3,4-d]pyrimidin-4-yl)-4-(4-(dimethylamino)-1-(phenylthio)butan-2-ylamino)-3-(trifluoromethylsulfonyl)benzenesulfonamide], the IC50 is 0.03 µM.

By IC50 is commonly meant the midpoint of a concentration-inhibition curve.
